Measurements: ChEMBL document CHEMBL4414546, “Identification of Narciclasine as an in Vitro Anti-Inflammatory Component of Cyrtanthus contractus by Correlation-Based Metabolomics” (2019)
Active and inactive are the calls of the source. The rule behind the calls is not given here.

What was measured:
HUVEC [1] = assay: Antiinflammatory activity in HUVEC assessed as reduction in TNF-alpha-induced E-selectin cell surface expression at 7.2 nM preincubated for 30 mins followed by TNF-alpha addition and measured after 4 hrs by ELISA; format: functional, cell-based; conditions: Homo sapiens
HUVEC [2] = assay: Antiinflammatory activity in HUVEC assessed as reduction in TNF-alpha-induced E-selectin expression at 7.2 nM preincubated for 30 mins followed by TNF-alpha stimulation and measured after 30 mins by immunoblotting analysis; format: functional, cell-based; conditions: Homo sapiens
HUVEC [3] = assay: Antiinflammatory activity in HUVEC assessed as reduction in TNF-alpha-induced ICAM1 cell surface expression at 7.2 nM preincubated for 30 mins followed by TNF-alpha stimulation and measured after 24 hrs by flow cytometry; format: functional, cell-based; conditions: Homo sapiens
HUVEC [4] = assay: Effect on TNF-alpha-induced NFkappaB nuclear translocation in HUVEC at 7.2 nM preincubated for 30 mins followed by TNF-alpha stimulation and measured after 30 mins by fluorescence microscopic analysis; format: cell-based; conditions: Homo sapiens
HUVEC [5] = assay: Antiinflammatory activity in TNF-alpha-induced HUVEC assessed as fold change in IkappaBalpha expression at 7.2 nM preincubated for 30 mins followed by addition and measured after 30 mins by immunoblotting analysis (reference value: 0.50); format: functional, Homo sapiens
HUVEC [6] = assay: Antiinflammatory activity in TNF-alpha-induced HUVEC assessed as fold change in COX2 expression at 7.2 nM preincubated for 30 mins followed by addition and measured after 30 mins by immunoblotting analysis (reference value: 0.50); format: functional, Homo sapiens

In the case of `O=C1N[C@@H]2C(=C[C@H](O)[C@@H](O)[C@H]2O)c2cc3c(c(O)c21)OCO3` [NARCICLASINE], the inhibition (HUVEC [1]) is reported as “Active”, the inhibition (HUVEC [2]) is reported as “Active” and the inhibition (HUVEC [3]) is reported as “Active”. For the same compound, the Activity (HUVEC [4]) was “inactive”, the “fold change (FC)” value (HUVEC [5]) was 0.31 and the “fold change (FC)” value (HUVEC [6]) was 0.8.
